Test results: patent publication US9072757B2, “Combination of an HMG-CoA reductase inhibitor and a farnesyl-pyrophosphate synthase inhibitor for the treatment of diseases related to the persistence and/or accumulation of prenylated proteins” (UNIVERSITE DE LA MEDITERRANEE AIX-MARSEILLE II, priority 2006, dated 2015)

Experiments:
prelamin A = experiment: Immunohistochemistry (immunomarking): level of prelamin A in healthy reference cells; format: cell-based, human; settings: Pravastatin 100 μM for 12 hours, zoledronate 20 μM for 6 hours; in combination or alone (FIG. 3)
Description: (§1) The cell lines are either reference fibroblasts AG16409 from the Coriell Institute, or fibroblasts from biopsies of patients suffering from Restrictive Dermopathy. They are cultivated at 37° C. in 5% CO2 in a P2 room.
(§2) A cell culture is trypsinised and the cells counted on a Neubauer cell.
(§3) Labtech-style culture wells (Nunc, ref 177399) are seeded, at the rate of 5×10^4 cells per well.
(§4) The complete culture medium is supplemented by the treatment or treatments (statin, NBP, or both), and the cells cultivated for an ad hoc time.
(§5) The cells are fixed in a paraformaldehyde 4% solution (in PBS) for 10 minutes at room temperature.
After defrosting, the cells are incubated for 5 minutes at room temperature in a humid chamber in 50 μl of a permeabilisation solution:
(§6) The primary antibody is diluted to 1/100th in 50 μl of incubation solution and put in contact with the cells for 1 hour at room temperature in a humid chamber.
Incubation with the secondary antibody takes place for 1 hour in 50 ml of incubation solution at room temperature in a humid chamber. […]
(§7) The cells are immersed in a drop of VectaShield (Vector), covered with an object-covering blade and observed on a fluorescence microscope (Leica DMR, Leica Microsystems), equipped with a coolSNAP (Princeton) camera system.

healthy cells = experiment: Immunohistochemistry: deformed nuclei / toxicity on healthy reference cells; format: cell-based, human; settings: Pravastatin 100 μM for 12 hours, zoledronate 20 μM for 6 hours; in combination or alone (FIG. 3)
Description: as §1, §2, §3, §4, §5, §6
Incubation with the secondary antibody takes place for 1 hour in 50 ml of incubation solution at room temperature in a humid chamber. The secondary antibodies are of two types: • Anti-mouse donkey, Jackson Immunoresearch, dilution to 1/100th • Anti-goat donkey, Jackson Immunoresearch, dilution to 1/200th […]
as §7

| Compound | level of prelamin A produced in treated healthy cells (prelamin A) [%] | level of deformed nuclei (the sign of toxicity on the healthy cells) (healthy cells) |
| --- | --- | --- |
| CC[C@H](C)C(=O)O[C@H]1C[C@H](O)C=C2C=C[C@H](C)[C@H](CC[C@@H](O)C[C@@H](O)CC(=O)O)[C@H]21 [pravastatin] | 25 | approximately 12% |
| (1-hydroxy-2-imidazol-1-yl-phosphono-ethyl)phosphonic acid [zoledronate] | 15 |  |
